System: SARS-CoV-2
Test: microbe, parasite or virus in culture
Conditions: Severe acute respiratory syndrome coronavirus 2, Vero C1008, 48 h

Compound | IC50 [µM] | IC50 (read-out: pIC50 (converted)) [µM]
COC(=O)OCOc1c2n(ccc1=O)N([C@@H]1c3ccccc3SCc3c1ccc(F)c3F)[C@@H]1COCCN1C2=O [BALOXAVIR MARBOXIL] | > 20 | > 20
CCC(CC)CC(=O)c1c(C(=O)OC)c(-c2ccc(OC)c(OC)c2)c2c(OC)c(OC)c(OC)cc2c1O | > 20 | > 20
CCC(=O)NC[C@@H]1C[C@H]1c1cccc2c1CCO2 [TASIMELTEON] | > 20 | > 20
O=C(O)/C=C\C(=O)O [MALEIC ACID] | > 20 | > 20
CC(C)NCC(O)c1ccc(O)c(O)c1 (stereo not given) [ISOPROTERENOL] | > 20 | > 20
CCC(=O)C(c1ccccc1)(c1ccccc1)C(C)CN(C)C (stereo not given) [ISOMETHADONE] | > 20 | > 20
CC(C)(C)C(O)/C=C/c1ccc2c(c1)OCO2 (stereo not given) [STIRIPENTOL] | > 20 | > 20
O=C(O)COc1ccc(C(=O)c2cccs2)c(Cl)c1Cl | > 20 | > 20
O=C(O)CN(CCN(CC(=O)O)CC(=O)O)CCN(CC(=O)O)CC(=O)O [PENTETIC ACID] | > 20 | > 20
Nc1[nH]ncc1-c1cc(Cl)ccc1Oc1cc(F)c(S(=O)(=O)Nc2cscn2)cc1Cl [PF-05089771] | > 20 | > 20
Cc1c2c(cn1C)NC(=O)CN=C2c1ccccc1 [PREMAZEPAM] | > 20 | > 20
CC(=O)OC1(c2ccccc2)CCN(CCc2ccccc2)CC1 | > 20 | > 20
Cc1ccc(C2(O)CCN(CCCC(=O)c3ccc(F)cc3)CC2)cc1 [MOPERONE] | > 20 | > 20
CC1=C(/C=C/C(C)=C/C=C/C(C)=C/C(=O)O)C(C)(C)CCC1 [TRETINOIN] | > 20 | > 20
CN(C)CC/C=C1/c2ccccc2COc2ccc(CC(=O)O)cc21 [OLOPATADINE] | > 20 | > 20
CN[C@@H]1[C@H](O)[C@H](NC)[C@H]2O[C@@]3(O)C(=O)C[C@@H](C)O[C@H]3O[C@@H]2[C@H]1O [SPECTINOMYCIN] | > 20 | > 20
CS(=O)(=O)c1ccc([C@@H](O)[C@@H](CO)NC(=O)C(Cl)Cl)cc1 [THIAMPHENICOL] | > 20 | > 20
COc1ccc2c(c1O)-c1c(OC)c(OC)cc3c1[C@H](C2)N(C)CC3 [ISOCORYDINE] | > 20 | > 20
CC1(Cn2ccnn2)[C@H](C(=O)O)N2C(=O)C[C@H]2S1(=O)=O (stereo not given in full) | > 20 | > 20
CCOC(=O)Nc1ccc2c(c1)N(C(=O)CCN1CCOCC1)c1ccccc1S2 [MORICIZINE] | > 20 | > 20
COc1cc2c(c(OC)c1OC)-c1c(cc3c(c1OC)OCO3)C[C@H](C)[C@@](C)(O)C2 [BESIGOMSIN] | > 20 | > 20
Clc1cccc(Cl)c1NC1=NCCN1 [CLONIDINE] | > 20 | > 20
Cn1cc(Nc2nccc(N3CC4CCC(C3)N4C(=O)[C@@H]3CC3(F)F)n2)cn1 | > 20 | > 20
S=C(NC1CCCCC1)N1CCC(c2cnc[nH]2)CC1 [THIOPERAMIDE] | > 20 | > 20
COC1(C)CCC2OC2(C)CCC2C1CC2(C)C (stereo not given) [2-METHOXY-5 (6)EPOXY-TETRAHYDROCARYOPHYLLENE] | > 20 | > 20
COC1=CC(=O)O[C@@H](/C=C/c2ccccc2)C1 (racemic) [KAVAIN] | > 20 | > 20
CC1NCCc2cc(O)c(O)cc21 (stereo not given) | > 20 | > 20
CC(C)(C)NC[C@H](O)COc1cccc2c1CCCC2=O [LEVOBUNOLOL] | > 20 | > 20

Compound | IC50 [µM] | IC50 (read-out: pIC50 (converted)) [µM]
C[C@H](CCC(=O)O)[C@H]1CC[C@H]2[C@@H]3CCC4C[C@H](O)CC[C@]4(C)[C@H]3CC[C@]12C (stereo not given in full) | > 20 | > 20
Fc1ccc(-c2ccc3c(c2)[nH]c2ccncc23)cn1 [FLORTAUCIPIR] | > 20 | > 20
O=C1CN=C(c2ccccc2)c2cc(Cl)ccc2N1 [NORDAZEPAM] | > 20 | > 20
CC1(C)NC(=O)N(c2ccc([N+](=O)[O-])c(C(F)(F)F)c2)C1=O [NILUTAMIDE] | > 20 | > 20
COc1cc(/C=C/C(=O)O)cc(OC)c1OC [SINAPIC ACID METHYL ETHER] | > 20 | > 20
O=C(Nc1ccc(Cl)cc1)Nc1ccc(Cl)c(Cl)c1 [TRICLOCARBAN] | > 20 | > 20
CCOc1cc(CC(=O)N[C@@H](CC(C)C)c2ccccc2N2CCCCC2)ccc1C(=O)O [REPAGLINIDE] | > 20 | > 20
O=C(N[C@H]1CN2CCC1CC2)c1ccc(Cl)cc1 [PNU-282987] | > 20 | > 20
COC(=O)C(O)c1ccccc1 (stereo not given) [MANDELIC ACID, METHYL ESTER] | > 20 | > 20
CCOC(=O)C1(c2ccccc2)CCN(CCN2CCOCC2)CC1 [MORPHERIDINE] | > 20 | > 20
COc1ccc2c(c1OC)CN1CCc3cc4c(cc3C1C2)OCO4 (stereo not given) [TETRAHYDROBERBERINE] | > 20 | > 20
Cc1cc2c(F)c(Oc3ncnn4cc(OC[C@@H](C)O)c(C)c34)ccc2[nH]1 [BRIVANIB] | > 20 | > 20
NC(CC(=O)NO)C(=O)O (stereo not given) | > 20 | > 20
CCN(CC)CCNC(=O)c1ccc(N)cc1 [PROCAINAMIDE] | > 20 | > 20
CCCC(CCC)C(=O)O[C@H]1C[C@H]2CC[C@@H](C1)[N+]2(C)C [ANISOTROPINE] | > 20 | > 20
CN1C(=O)CCS(=O)(=O)C1c1ccc(Cl)cc1 (stereo not given) [CHLORMEZANONE] | > 20 | > 20
COC1=C(OC)C(=O)C(CCCCCCCCCCO)=C(C)C1=O [IDEBENONE] | > 20 | > 20
CC(=O)OCC[N+](C)(C)C [ACETYLCHOLINE] | > 20 | > 20
CN(C)c1cccc2c(S(=O)(=O)Nc3ccc(NC(=O)C(C)(C)CO)cc3)cccc12 [TOMEGLOVIR] | > 20 | > 20
C[N+]1(CC2CC2)CC[C@]23c4c5ccc(O)c4O[C@H]2C(=O)CC[C@@]3(O)[C@H]1C5 (stereo not given in full) [METHYLNALTREXONE] | > 20 | > 20
C#CCOC[C@@H]1CO[C@@](Cn2ccnc2)(c2ccc(Cl)cc2Cl)O1 | > 20 | > 20
Cc1nc(NC(=O)N2CCC[C@H]2C(N)=O)sc1-c1ccnc(C(C)(C)C(F)(F)F)c1 [ALPELISIB] | > 20 | > 20
NC[C@H](O)c1ccc(O)c(O)c1 [NOREPINEPHRINE] | > 20 | > 20
enfuvirtide | > 20 | > 20
CCc1oc2ccccc2c1C(=O)c1cc(I)c(O)c(I)c1 [BENZIODARONE] | > 20 | > 20
CC(=O)[C@@]1(O)CC[C@H]2[C@@H]3C=C(Cl)C4=CC(=O)[C@@H]5C[C@@H]5[C@]4(C)[C@H]3CC[C@@]21C [CYPROTERONE] | > 20 | > 20
CC(=O)Oc1ccccc1C(=O)Nc1ncc([N+](=O)[O-])s1 [NITAZOXANIDE] | > 20 | > 20

— ChEMBL document CHEMBL4651402, “Screening of ~5500 FDA-approved drugs and clinical candidates for anti-SARS-CoV-2 activity” (2021)
